# Measured values reported in ChEMBL document CHEMBL3860026, “Depsidones from Lichens as Natural Product Inhibitors of M-Phase Phosphoprotein 1, a Human Kinesin Required for Cytokinesis” (J Nat Prod, 2016).
# Activity calls are given as the source filed them. The rule behind the calls is not given here.
# Legend:
# [1] = Cytotoxicity against human K562 cells assessed as growth inhibition after 72 hrs by Alamar Blue assay; assay type: functional, cell-based; details: K562, 72 h
# [2] = biological target: T1, Kinesin-like protein KIF20B (Homo sapiens, UniProt Q96Q89); test: Inhibition of basal ATPase activity of N-terminal His6-tagged/SUMO-fused human MPP1 motor domain (57 to 491 residues) expressed in Escherichia coli BL21 CodonPlus by pyruvate kinase/lactate dehydrogenase-linked assay
# [3] = Half life in human liver microsomes at 3 uM by LC-MS/MS method; assay type: ADME
# [4] = biological target: T1, Kinesin-like protein KIF20B; details: 1 to 20 uM
# [5] = Intrinsic clearance in mouse liver microsomes assessed per mg of protein at 3 uM after 5 to 60 mins by LC-MS/MS method; assay type: ADME; details: read-out: CLH
# [6] = Cytotoxicity against human J82 cells assessed as growth inhibition after 72 hrs by Alamar Blue assay; assay type: functional, cell-based; details: J82, 72 h
# [7] = Cytotoxicity against human BxPC3 cells assessed as growth inhibition after 72 hrs by Alamar Blue assay; assay type: functional, cell-based; details: BXPC-3, 72 h
# [8] = Passive permeability of the compound assessed as compound recovery at 10 uM after 5 hrs by PAMPA; assay type: ADME; details: read-out: Drug recovery
# [9] = Apparent passive permeability of the compound at 10 uM after 5 hrs by PAMPA; assay type: ADME; details: pampa, 5 h, 10 µM
# [10] = Solubility of the compound in phosphate buffered saline at pH 6 after 2 hrs by turbidimetric method; assay type: physicochemical
# [11] = Cytotoxicity against human UM-UC-3 cells assessed as growth inhibition after 72 hrs by Alamar Blue assay; assay type: functional, cell-based; details: UMUC3, 72 h
# [12] = n-octanol-buffer distribution co-efficient, log D of the compound at pH 7.4 by shake flask method; assay type: physicochemical
# [13] = biological target: T2, Kinesin-like protein KIF3B (Homo sapiens) (UniProt O15066); test: Inhibition of microtubule-stimulated ATPase activity of human Kif3B at 200 uM by pyruvate kinase/lactate dehydrogenase-linked assay
# T2 sequence (whole entry): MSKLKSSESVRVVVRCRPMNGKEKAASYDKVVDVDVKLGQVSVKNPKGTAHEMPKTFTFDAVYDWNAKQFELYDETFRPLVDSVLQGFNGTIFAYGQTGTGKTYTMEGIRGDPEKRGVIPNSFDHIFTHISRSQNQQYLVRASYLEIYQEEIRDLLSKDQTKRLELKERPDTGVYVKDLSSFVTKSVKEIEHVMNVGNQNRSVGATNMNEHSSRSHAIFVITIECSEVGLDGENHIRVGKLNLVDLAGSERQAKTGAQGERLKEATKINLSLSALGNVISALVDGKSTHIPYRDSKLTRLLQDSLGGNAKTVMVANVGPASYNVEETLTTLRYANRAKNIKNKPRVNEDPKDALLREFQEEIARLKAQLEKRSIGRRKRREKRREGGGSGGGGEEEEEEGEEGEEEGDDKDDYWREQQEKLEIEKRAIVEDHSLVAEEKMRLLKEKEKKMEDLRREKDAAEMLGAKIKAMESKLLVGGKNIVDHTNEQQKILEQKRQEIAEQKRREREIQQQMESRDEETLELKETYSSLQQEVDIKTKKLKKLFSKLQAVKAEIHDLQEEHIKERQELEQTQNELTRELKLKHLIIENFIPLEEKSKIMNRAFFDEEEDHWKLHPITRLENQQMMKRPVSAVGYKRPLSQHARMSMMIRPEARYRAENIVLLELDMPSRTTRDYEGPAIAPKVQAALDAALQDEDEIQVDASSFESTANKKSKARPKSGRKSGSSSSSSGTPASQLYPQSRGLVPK
# [14] = biological target: T3, Centromere-associated protein E (Homo sapiens, UniProt Q02224); test: Inhibition of basal ATPase activity of human CENP-E by pyruvate kinase/lactate dehydrogenase-linked assay
# [15] = biological target: T1, Kinesin-like protein KIF20B; test: Inhibition of microtubule-stimulated ATPase activity of N-terminal His6-tagged/SUMO-fused human MPP1 motor domain (57 to 491 residues) expressed in Escherichia coli BL21 CodonPlus by pyruvate kinase/lactate dehydrogenase-linked assay
# [16] = biological target: T4, Kinesin-like protein KIF9 (Homo sapiens) (UniProt Q9HAQ2); test: Inhibition of basal ATPase activity of human Kif9 at 200 uM by pyruvate kinase/lactate dehydrogenase-linked assay
# T4 sequence (whole entry): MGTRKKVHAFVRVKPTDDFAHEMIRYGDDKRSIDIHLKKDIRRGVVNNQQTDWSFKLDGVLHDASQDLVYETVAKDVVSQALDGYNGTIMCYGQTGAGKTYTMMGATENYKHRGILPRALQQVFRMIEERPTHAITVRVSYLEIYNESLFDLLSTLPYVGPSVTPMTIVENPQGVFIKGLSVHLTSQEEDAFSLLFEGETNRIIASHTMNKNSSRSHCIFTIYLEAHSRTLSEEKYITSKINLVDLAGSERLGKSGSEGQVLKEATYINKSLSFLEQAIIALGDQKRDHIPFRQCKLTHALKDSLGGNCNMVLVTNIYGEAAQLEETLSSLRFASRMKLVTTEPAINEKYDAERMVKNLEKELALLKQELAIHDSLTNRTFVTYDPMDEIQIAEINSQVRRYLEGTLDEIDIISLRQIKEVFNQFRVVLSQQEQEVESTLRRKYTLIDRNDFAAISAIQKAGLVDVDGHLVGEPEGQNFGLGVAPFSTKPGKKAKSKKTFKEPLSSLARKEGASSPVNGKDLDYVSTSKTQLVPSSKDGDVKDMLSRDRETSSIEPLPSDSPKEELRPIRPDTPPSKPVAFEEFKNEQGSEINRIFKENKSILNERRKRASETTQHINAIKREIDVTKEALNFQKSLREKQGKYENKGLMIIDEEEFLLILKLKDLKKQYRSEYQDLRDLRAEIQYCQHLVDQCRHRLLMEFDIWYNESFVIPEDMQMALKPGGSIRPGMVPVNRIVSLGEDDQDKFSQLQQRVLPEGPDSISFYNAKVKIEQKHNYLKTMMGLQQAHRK
# [17] = biological target: T1, Kinesin-like protein KIF20B; details: 1 to 20 uM; remark: listed apart in the source
# [18] = Chemical stability of the compound at 5 uM after 15 to 120 mins by LC-MS/MS method; assay type: physicochemical
# [19] = Half life in mouse liver microsomes at 3 uM by LC-MS/MS method; assay type: ADME
# [20] = Cytotoxicity against human HCT116 cells assessed as growth inhibition after 72 hrs by Alamar Blue assay; assay type: functional, cell-based; details: HCT-116, 72 h
# [21] = biological target: T1, Kinesin-like protein KIF20B; test: Inhibition of microtubule-stimulated ATPase activity of N-terminal His6-tagged/SUMO-fused human MPP1 motor domain (2 to 477 residues) expressed in Escherichia coli BL21 CodonPlus by pyruvate kinase/lactate dehydrogenase-linked assay
# [22] = biological target: T3, Centromere-associated protein E; test: Inhibition of microtubule-stimulated ATPase activity of human CENP-E by pyruvate kinase/lactate dehydrogenase-linked assay
# T1 sequence (Q96Q89 whole entry, the tested form may be a part): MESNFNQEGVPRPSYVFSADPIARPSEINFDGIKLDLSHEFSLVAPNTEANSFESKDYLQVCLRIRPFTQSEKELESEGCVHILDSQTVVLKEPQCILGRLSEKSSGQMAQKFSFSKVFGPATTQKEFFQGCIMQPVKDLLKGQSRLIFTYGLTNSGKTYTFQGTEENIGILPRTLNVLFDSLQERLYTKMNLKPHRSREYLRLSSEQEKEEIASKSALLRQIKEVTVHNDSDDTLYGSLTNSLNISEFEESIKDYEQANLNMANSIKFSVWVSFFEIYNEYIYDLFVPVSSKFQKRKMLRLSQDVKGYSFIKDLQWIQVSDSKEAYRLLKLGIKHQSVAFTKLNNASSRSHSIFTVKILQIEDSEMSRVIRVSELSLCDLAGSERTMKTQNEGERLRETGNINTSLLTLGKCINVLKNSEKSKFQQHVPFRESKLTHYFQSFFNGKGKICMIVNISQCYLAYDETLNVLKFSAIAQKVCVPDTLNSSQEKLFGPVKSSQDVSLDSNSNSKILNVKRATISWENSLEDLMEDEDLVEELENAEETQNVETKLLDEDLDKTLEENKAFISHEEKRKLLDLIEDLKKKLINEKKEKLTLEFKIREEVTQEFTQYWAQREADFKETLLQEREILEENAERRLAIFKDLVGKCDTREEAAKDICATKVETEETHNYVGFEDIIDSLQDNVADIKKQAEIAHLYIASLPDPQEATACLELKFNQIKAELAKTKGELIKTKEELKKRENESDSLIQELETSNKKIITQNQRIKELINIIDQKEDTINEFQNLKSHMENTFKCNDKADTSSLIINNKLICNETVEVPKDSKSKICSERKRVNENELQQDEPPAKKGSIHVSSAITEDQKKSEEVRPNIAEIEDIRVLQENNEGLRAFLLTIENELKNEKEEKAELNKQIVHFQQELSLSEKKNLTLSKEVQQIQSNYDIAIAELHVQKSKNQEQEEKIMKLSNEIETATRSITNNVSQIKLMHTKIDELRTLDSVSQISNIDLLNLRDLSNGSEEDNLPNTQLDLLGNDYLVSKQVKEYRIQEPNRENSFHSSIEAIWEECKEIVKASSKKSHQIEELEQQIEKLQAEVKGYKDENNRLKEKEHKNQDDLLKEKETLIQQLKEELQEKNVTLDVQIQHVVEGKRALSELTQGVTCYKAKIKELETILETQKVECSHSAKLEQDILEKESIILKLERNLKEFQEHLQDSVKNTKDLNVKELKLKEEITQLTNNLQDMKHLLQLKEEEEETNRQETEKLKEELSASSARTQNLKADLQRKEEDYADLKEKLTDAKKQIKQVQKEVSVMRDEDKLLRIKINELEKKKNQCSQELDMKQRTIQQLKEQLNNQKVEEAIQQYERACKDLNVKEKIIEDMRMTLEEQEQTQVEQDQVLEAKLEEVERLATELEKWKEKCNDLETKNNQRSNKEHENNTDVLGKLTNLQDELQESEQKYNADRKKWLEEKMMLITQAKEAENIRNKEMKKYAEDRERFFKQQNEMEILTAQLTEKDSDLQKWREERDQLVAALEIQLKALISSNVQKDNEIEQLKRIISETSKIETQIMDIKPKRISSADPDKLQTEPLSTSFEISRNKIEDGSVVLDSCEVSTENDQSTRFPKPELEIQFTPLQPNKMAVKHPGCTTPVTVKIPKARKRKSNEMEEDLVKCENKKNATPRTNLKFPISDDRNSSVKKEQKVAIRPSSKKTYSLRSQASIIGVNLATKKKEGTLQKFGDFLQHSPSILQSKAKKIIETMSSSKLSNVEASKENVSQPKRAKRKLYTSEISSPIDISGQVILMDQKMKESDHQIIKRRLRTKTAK
# T3 sequence (Q02224 whole entry, the tested form may be a part): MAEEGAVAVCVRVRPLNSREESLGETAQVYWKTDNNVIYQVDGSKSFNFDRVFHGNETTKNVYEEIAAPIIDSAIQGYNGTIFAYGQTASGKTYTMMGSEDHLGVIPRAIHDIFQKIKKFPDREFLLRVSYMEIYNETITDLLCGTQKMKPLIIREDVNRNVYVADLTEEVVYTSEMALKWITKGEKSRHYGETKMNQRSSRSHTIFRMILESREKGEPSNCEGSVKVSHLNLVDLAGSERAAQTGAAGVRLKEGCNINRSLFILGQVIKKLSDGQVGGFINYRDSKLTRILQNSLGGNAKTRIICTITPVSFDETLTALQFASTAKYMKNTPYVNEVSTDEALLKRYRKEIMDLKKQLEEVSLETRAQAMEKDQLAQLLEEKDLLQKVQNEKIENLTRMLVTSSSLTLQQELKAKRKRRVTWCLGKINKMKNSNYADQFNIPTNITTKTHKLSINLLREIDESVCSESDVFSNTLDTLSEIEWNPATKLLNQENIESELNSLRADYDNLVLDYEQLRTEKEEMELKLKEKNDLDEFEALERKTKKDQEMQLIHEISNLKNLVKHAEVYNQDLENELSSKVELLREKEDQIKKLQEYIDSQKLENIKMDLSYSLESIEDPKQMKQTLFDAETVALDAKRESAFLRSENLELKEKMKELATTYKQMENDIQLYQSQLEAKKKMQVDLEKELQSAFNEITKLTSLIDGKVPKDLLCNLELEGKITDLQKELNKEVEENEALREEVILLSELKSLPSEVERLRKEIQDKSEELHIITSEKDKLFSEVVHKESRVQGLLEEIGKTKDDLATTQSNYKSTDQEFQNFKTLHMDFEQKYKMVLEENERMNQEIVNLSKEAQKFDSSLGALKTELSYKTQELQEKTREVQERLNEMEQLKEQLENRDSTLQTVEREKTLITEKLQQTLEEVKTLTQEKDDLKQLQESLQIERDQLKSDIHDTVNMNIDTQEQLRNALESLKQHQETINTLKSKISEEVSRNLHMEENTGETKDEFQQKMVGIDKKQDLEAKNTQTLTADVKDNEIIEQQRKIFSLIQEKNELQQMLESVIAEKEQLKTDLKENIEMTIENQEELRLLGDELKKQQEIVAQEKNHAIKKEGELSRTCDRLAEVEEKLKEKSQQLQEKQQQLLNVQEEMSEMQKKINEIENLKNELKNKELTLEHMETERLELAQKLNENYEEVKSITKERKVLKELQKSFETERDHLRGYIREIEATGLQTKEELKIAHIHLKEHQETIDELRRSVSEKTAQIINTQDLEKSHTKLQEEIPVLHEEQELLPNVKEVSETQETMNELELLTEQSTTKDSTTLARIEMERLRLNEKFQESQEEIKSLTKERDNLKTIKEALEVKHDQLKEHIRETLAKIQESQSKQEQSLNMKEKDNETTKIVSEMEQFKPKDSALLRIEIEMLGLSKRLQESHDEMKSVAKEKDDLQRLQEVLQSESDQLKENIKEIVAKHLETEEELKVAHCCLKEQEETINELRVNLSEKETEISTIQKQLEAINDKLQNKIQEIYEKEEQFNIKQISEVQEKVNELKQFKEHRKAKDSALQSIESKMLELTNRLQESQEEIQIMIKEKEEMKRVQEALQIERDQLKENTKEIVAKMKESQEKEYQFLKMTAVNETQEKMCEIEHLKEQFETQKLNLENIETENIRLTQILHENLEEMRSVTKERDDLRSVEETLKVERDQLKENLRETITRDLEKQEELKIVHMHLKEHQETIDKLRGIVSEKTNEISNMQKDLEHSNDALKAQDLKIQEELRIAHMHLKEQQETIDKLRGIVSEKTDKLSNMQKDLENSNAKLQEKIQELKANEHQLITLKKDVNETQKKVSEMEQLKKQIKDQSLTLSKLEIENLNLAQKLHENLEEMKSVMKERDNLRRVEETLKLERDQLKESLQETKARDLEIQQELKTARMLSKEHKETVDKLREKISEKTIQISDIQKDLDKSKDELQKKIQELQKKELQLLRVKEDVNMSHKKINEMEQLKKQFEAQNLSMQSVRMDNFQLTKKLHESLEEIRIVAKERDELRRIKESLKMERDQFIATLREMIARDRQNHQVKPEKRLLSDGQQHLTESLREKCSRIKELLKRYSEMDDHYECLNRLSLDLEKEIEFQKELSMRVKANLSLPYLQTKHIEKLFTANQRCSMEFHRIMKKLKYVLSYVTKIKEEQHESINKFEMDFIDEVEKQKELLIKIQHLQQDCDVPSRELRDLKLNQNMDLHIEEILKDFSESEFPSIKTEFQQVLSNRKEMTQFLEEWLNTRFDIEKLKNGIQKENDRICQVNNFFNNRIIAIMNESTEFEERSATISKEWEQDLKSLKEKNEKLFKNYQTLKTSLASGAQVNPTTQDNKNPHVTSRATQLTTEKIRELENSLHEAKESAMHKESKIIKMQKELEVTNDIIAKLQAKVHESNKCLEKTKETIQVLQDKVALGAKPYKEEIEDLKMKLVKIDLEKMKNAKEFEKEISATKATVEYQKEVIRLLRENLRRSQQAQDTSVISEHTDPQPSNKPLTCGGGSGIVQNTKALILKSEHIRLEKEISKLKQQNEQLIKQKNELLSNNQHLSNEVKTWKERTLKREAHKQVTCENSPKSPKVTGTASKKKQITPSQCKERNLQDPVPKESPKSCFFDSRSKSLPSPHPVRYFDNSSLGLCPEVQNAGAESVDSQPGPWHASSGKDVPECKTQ
compound,measurement,setting,value
CCCCCC(=O)Cc1cc(O)cc2c1C(=O)Oc1cc(O)c(C(=O)O)c(CCCCC)c1O2 [PHYSODIC ACID],EC50,[1],32.6 µM
same,IC50,[2],9.9 µM
same,Imax,[2],85%
same,half-life at 3 µM,[3],4.5 min
same,inhibition,[4],Active
same,microsomal CLint at 3 µM,[5],61.6 µL/min/mg
same,EC50,[6],38.2 µM
same,EC50,[7],37.3 µM
same,"recovery at 5 h, 10 µM",[8],77%
same,Papp,[9],Impermeable
same,solubility kinetic at 2 h,[10],65 µM
same,EC50,[11],31.8 µM
same,logD,[12],3
same,inhibition,[13],40%
same,IC50,[14],29.6 µM
same,IC50,[15],5.8 µM
same,Imax,[15],90%
same,inhibition,[16],40%
same,inhibition,[17],Active
same,Stability,[18],Stable
same,half-life at 3 µM,[19],22.5 min
same,EC50,[20],> 50 µM
same,IC50,[21],4.6 µM
same,Imax,[21],95%
same,IC50,[22],91.4 µM
